For this experiment, the system named is Hep-3B liver cancer cells. Kind of experiment: In vivo assay, Hep-3B cells transplanted subcutaneously into athymic mice. To be noted: intraperitoneally, once every two days, 14th day, vs control group. The protocol: Compound 3 was tested for its efficacy against Hep-3B liver cancer cells implanted in mice of two treated groups at a […] dosage of 50 mg/kg and 75 mg/kg. In a control group, mice bearing Hep-3B liver cancer cells were not treated with any test compound. Male athymic mice (Ncr nu/nu) of 4-6 weeks of age and weighing 20-25 g were used. Mice were housed in cages in ventilated cabinets and provided sterilized pellet diet and sterile water ad libitum. The temperature was kept between 23-25° C. and a humidity of about 50±10%. Light of the housing area was on a 12-hour light/dark cycle. All experimentation was performed under the IACUC guidelines adopted by the Development Center for Biotechnology, Taiwan. Hep-3B cells were transplanted subcutaneously into athymic mice. In the treated groups, when the tumor reached a volume of about 50 mm^3, mice were treated with compound 3 at a dosage of 50 mg/kg or 75 mg/kg once every two days for three times. The treated groups and the control group each had 7 mice. Compound 3 was administered intraperitoneally. The sizes of tumors were measured using a caliper at least twice a week and the tumor volume (TV) was calculated. Body weights were also monitored along with tumor volume measurement. The percentage of tumor growth was determined by dividing the mean TV of the treated group by the mean TV of a control group.

Structures are written as SMILES.

Turning to `Cn1c(-c2ccc(CO)[se]2)cc(CO)c1-c1ccc(CO)[se]1` [Compound 3], the “mean TV (tumor volume) reduced” value was determined as 37% (three doses of 50 mg/kg) and 63% (three doses of 75 mg/kg).

Source of the values: patent publication US20060040909A1, “Selenophene compounds” (DEVELOPMENT CENTER FOR BIOTECHNOLOGY, priority 2004, published 2006).
